# Laboratory results reported in patent US10196363B2, “Dihydropyrimidin-2-one compounds and medical use thereof” (JAPAN TOBACCO INC., priority 2014, dated 2019).
# Read-outs that look alike come from different tables or passages of the source.
# Assays:
# [1] = molecular target: T1, mouse RORγ (Mus musculus, UniProt P51450); test: In vitro assay of inhibitory effect against RORγ transcriptional activity (GAL4-mRORγ LBD luciferase reporter gene assay in CHO cells); type: cell-based; settings: for mRORγ luciferase activity, %-of-control: value in parentheses beside the > EC50 bound, vehicle-control 0.2% DMSO alone = 100%
# T1 construct: mouse RORγ, from Ile251 to Lys516; expressed in transfected cells; host or cells: CHO cells (Chinese hamster ovary), transient co-transfection with pG5-Luc
# T1 sequence (P51450 251-516): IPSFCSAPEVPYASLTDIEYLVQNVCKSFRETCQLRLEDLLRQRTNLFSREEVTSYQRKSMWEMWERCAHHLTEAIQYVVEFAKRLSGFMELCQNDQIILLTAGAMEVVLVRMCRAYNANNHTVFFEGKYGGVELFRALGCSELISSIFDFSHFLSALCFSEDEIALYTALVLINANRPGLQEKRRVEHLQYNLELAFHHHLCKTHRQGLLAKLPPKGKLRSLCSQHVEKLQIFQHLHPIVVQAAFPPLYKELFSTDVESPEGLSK
# Protocol: (§1) In Vitro Assay of Inhibitory Effect Against RORγ Transcriptional Activity
# (§2) Inhibitory effect of a test article on transcriptional activity of RORγ was measured by means of the following reporter gene assay.
# (§3) cDNA encoding human and mouse RORγ ligand binding domain (LBD) were obtained based on the sequences of human RORγ (Genebank registered number NM_005060.3) and mouse RORγ (Genebank registered number NM_011281.2) (LBD sequence: human RORγ, from Ser253 to Lys518; mouse RORγ, from Ile251 to Lys516).
# (§4) The LBD cDNA of human or mouse RORγ was inserted into pFA-CMV vector (Strategene), which expresses GAL4-DNA binding domain fusion protein. The resulting plasmids are hereinafter referred to as GAL4-hRORγ plasmid and GAL4-mRORγ plasmid, respectively.
# (§5) GAL4-hRORγ plasmid or GAL4-mRORγ plasmid was transiently co-transfected into Chinese hamster ovary cells (CHO cells) with pG5-Luc (Promega), a reporter plasmid expressing firefly luciferase depending on GAL4.
# (§6) TransIT (Registered trademark) CHO transfection reagent (Mirus) was used to co-transfect GAL4-hRORγ plasmid or GAL4-mRORγ plasmid into CHO cells with pG5-Luc plasmid. One day before the assay, CHO cells were suspended in HAM F-12 Nutrient medium containing 10 v/v % fetal bovine serum and seeded at 6×10^6 cells per 175 cm^2 cell culture flask. Fifty four micro litters of TransIT (Registered trademark) CHO reagent was added into a 15 ml tube containing 1.16 mL of HAM F-12 Nutrient medium without fetal bovine serum, and mixed and incubated at room temperature for 10 min. Thirty six micro litters of plasmid solution containing the GAL4-hRORγ plasmid (400 ng), pG5-Luc plasmid (9000 ng) and pcDNA3 plasmid (8600 ng) were added into the tube and mixed gently. In case of mouse assay, a plasmid solution containing the GAL4-mRORγ plasmid (250 ng), pG5-Luc plasmid (9000 ng) and pcDNA3 plasmid (8750 ng) was added, instead. The mixture was incubated at room temperature for 10 min. Nine micro litters of CHO Mojo Reagent were then added into each tube and mixed gently. The mixture was incubated at room temperature for 10 min. The resultant transfection reagent was applied to the cell culture. After incubation at 37° C., 5% CO2 for 4 hours, the plasmid-transfected CHO cells were harvested with a trypsin treatment. The collected cells were resuspended in HAM F-12 Nutrient medium supplemented with 10 v/v % fetal bovine serum and plated into a 384-well-white plate at 8,000 cells/50 μL/well. The plate was incubated at room temperature for 1 hour and then further incubated at 37° C., 5% CO2 for 3 hours. The test articles were dissolved in dimethylsulfoxide (DMSO) to obtain a concentration of 10 mM. The resulting solution was diluted with a medium just before use and added to the cells in the plate to prepare 8 different concentrations of the test article. The final concentration of DMSO was 0.2 v/v %. After the addition of the test articles, the cells were incubated at 37° C., 5% CO2 for 2 days.
# (§7) RORγ transcriptional activity was detected as the intracellular luciferase activity using SteadyLite HTS Reporter Gene Assay System (Perkin Elmer). StedyLite Reagent was diluted five-fold into a solution containing Extension reagent (10 mM Tricine, 0.2% w/v BSA, 0.02% v/v Tween-20) to obtain the luciferase substrate solution. After the measurement of the cell viability using Resazurin, the culture media in the plate were removed, and then the luciferase substrate solution was added into each well. After the incubation at room temperature for 10 minutes, luminescence of each well was measured by a microplate reader. The luciferase activity derived from the luminescence count in the vehicle-control well treated with 0.2% DMSO alone was defined as 100%, and the luciferase activity in the test article was calculated as a percentage (%-of-control) based on the value of the vehicle-control. EC50 value of test article was calculated by curve fitting with GraphPad Prism. […]
# [2] = molecular target: T2, human RORγ (Homo sapiens, UniProt P51449); test: In vitro assay of inhibitory effect against RORγ transcriptional activity (GAL4-hRORγ LBD luciferase reporter gene assay in CHO cells); type: cell-based; settings: for hRORγ luciferase activity, %-of-control: vehicle-control 0.2% DMSO alone = 100%
# T2 construct: human RORγ, from Ser253 to Lys518; expressed in transfected cells; host or cells: CHO cells (Chinese hamster ovary), transient co-transfection with pG5-Luc
# T2 sequence (P51449 253-518): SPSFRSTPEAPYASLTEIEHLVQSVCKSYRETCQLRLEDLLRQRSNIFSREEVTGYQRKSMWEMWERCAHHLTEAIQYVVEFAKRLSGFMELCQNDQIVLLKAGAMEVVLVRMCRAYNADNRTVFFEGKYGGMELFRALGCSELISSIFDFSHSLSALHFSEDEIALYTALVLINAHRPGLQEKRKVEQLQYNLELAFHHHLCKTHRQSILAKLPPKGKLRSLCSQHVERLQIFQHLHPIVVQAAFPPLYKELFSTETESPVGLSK
# Protocol: as §1, §2, §3, §4, §5, §6, §7
# [3] = GAL4-mRORγ LBD luciferase reporter, CHO cells, read-out: LUC EC50 mRORγ
# [4] = GAL4-hRORγ LBD luciferase reporter, CHO cells, read-out: LUC EC50 hRORγ
# [5] = GAL4-mRORγ LBD / pG5-Luc in CHO cells, 2 days incubation
# [6] = GAL4-hRORγ LBD / pG5-Luc in CHO cells, 2 days incubation
# [7] = value in parentheses beside the > EC50 bound
SMILES,"EC50 [1, 3]","EC50 [2, 4]","EC50 [1, 5]","EC50 [2, 6]",further results
COCCC1=CN(c2ccc(C(=O)O)cc2)C(=O)N[C@@]1(C)c1ccc(CCC(C)(C)C)c(C(F)(F)F)c1 [Example 323],23 nM,51 nM,,,
CC(C)C1=CN(c2ccc(C(=O)O)cc2)C(=O)N[C@@]1(C)c1cc(F)c(OCC(C)(C)C)c(Cl)c1 [Example 193],19 nM,18 nM,,,
CC(C)C1=CN(CCC(=O)O)C(=O)N[C@]1(C)c1ccc(C2CCCC2)c(Cl)c1 [Example 155],,,> 8000 nM,> 8000 nM,"mRORγ luciferase activity, %-of-control [1]: (81%); hRORγ luciferase activity, %-of-control [2, 7]: (83%)"
CC(C)(C)CCc1ccc([C@]2(C)NC(=O)N(c3ccc(C(=O)O)cc3)C=C2C2CC(F)(F)C2)cc1C(F)(F)F [Example 342],28 nM,43 nM,,,
CC(C)CCSc1ccc([C@]2(C)NC(=O)N(CCC(=O)O)C=C2C(C)C)cc1Cl [Example 218],122 nM,376 nM,,,
"CC(C)C1=CN(CCC(=O)O)C(=O)NC1(C)c1ccc(C2=CC(C)(C)CCC2)c(Cl)c1 (single isomer, unassigned) [Example 151]",,,23 nM,18 nM,
CC(C)(C)C1=CN(CCCC(=O)O)C(=O)NC1c1ccc(OCCC2CCCCC2)c(Cl)c1 (racemic) [Example 3],,,61 nM,182 nM,
CC(C)C1=CN(CCC(=O)O)C(=O)N[C@@]1(C)c1ccc(C2CCC(C)(C)CC2)c(Cl)c1 [Example 118],,,17 nM,19 nM,
CC(C)C1=CN(CCCC(=O)O)C(=O)NC1(C)c1ccc(OCCC(F)(F)F)cc1 (racemic) [Example 105],,,1690 nM,2790 nM,
C[C@@]1(c2ccc(OCCC3CC3)c(Cl)c2)NC(=O)N(C23CC(C(=O)O)(C2)C3)C=C1C1CC(F)(F)C1 [Example 354],144 nM,239 nM,,,
CC(C)C1=CN(CCC(=O)O)C(=O)N[C@@]1(C)c1cc(F)c(OCC(C)(C)C)c(Cl)c1 [Example 164],,,11 nM,18 nM,
CCCCc1ccc(C2(C)NC(=O)N(CCCC(=O)O)C=C2C(C)C)cc1OCc1ccccc1 (racemic) [Example 85],,,368 nM,545 nM,
"CC(C)C1=CN(CCC(C)C(=O)O)C(=O)NC1(C)c1ccc(OCC(C)(C)C)c(Cl)c1 (single isomer, unassigned) [Example 20]",,,2520 nM,2930 nM,

# More lines, main results first:
"EC50 [1, 3]","EC50 [2, 4]","EC50 [1, 5]","EC50 [2, 6]",SMILES,further results
,,10800 nM,6490 nM,CC(C)C1=CN([C@H]2CC[C@H](C(=O)O)CC2)C(=O)N[C@]1(C)c1ccc(CCC(C)(C)C)c(Cl)c1 [Example 78],
,,2890 nM,1510 nM,CC(C)(C)CCc1ccc([C@@]2(C)NC(=O)N([C@H]3C[C@H](C(=O)O)C3)C=C2C2CCOCC2)cc1Cl [Example 99],
,,35 nM,20 nM,CC(C)(C)CCc1ccc([C@]2(C)NC(=O)N([C@H]3C[C@H](C(=O)O)C3)C=C2C2CCOCC2)cc1Cl [Example 100],
,,12 nM,12 nM,CC(C)C1=CN(CCCC(=O)O)C(=O)N[C@@]1(C)c1ccc(CCC(C)(C)C)c(Cl)c1 [Example 15],
,,1760 nM,1240 nM,CCC1=CN(CCCC(=O)O)C(=O)N[C@]1(C)c1ccc(CCC(C)(C)C)c(Cl)c1 [Example 68],
,,5930 nM,6570 nM,"CC(C)C1=CN(CCCC(=O)O)C(=O)NC1(C)c1ccc(OCC(C)(C)C)c(Cl)c1 (single isomer, unassigned) [Example 13]",
,,26 nM,20 nM,"CC(C)C1=CN(CCOCC(=O)O)C(=O)NC1(C)c1ccc(CCC(C)(C)C)c(Cl)c1 (single isomer, unassigned) [Example 39]",
1500 nM,2780 nM,,,CC(C)(C)CCc1ccc([C@]2(C)NC(=O)N(CCC(=O)O)C=C2C2CC(C)(C)OC(C)(C)C2)cc1Cl [Example 284],
,,49 nM,> 512 nM,CC(C)C1=CN(CCC(=O)O)C(=O)N[C@@]1(C)c1ccc(CCC2CC(C)(C)C2)c(Cl)c1 [Example 142],"hRORγ luciferase activity, %-of-control [2, 7]: (102%)"
1610 nM,> 3200 nM,,,CC(C)C1=CN([C@@H]2CCCC[C@H]2C(=O)O)C(=O)N[C@@]1(C)c1ccc(CCC(C)(C)C)c(Cl)c1 [Example 235],"hRORγ luciferase activity, %-of-control ([2]; value in parentheses beside the EC50 bound): (70%)"
19 nM,21 nM,,,CC(C)C1=CN(C23CC(C(=O)O)(C2)C3)C(=O)N[C@@]1(C)c1ccc(CCC(C)(C)C)c(C(F)(F)F)c1 [Example 322],
60 nM,174 nM,,,COCCC1=CN([C@H]2CC[C@H](C(=O)O)CC2)C(=O)N[C@@]1(C)c1ccc(CCC(C)(C)C)c(C(F)(F)F)c1 [Example 325],
,,267 nM,143 nM,CC(C)C1=CN([C@@H]2CC(=O)N(CC(=O)O)C2)C(=O)N[C@@]1(C)c1ccc(CCC(C)(C)C)c(Cl)c1 [Example 163],
19 nM,15 nM,,,"CC(C)C1=CN(C2CC3(CC(C(=O)O)C3)C2)C(=O)N[C@@]1(C)c1ccc(CCC(C)(C)C)c(Cl)c1 (single isomer, unassigned) [Example 232]",
,,> 3200 nM,3070 nM,CC(C)(C)CCc1ccc([C@@]2(C)NC(=O)N(CCCC(=O)O)C=C2C2CCCCC2)cc1Cl [Example 31],"mRORγ luciferase activity, %-of-control [1]: (52%)"
,,142 nM,152 nM,CC(C)C1=CN(CC(=O)O)C(=O)N[C@@]1(C)c1ccc(CCC(C)(C)C)c(Cl)c1 [Example 94],
26 nM,12 nM,,,COC[C@H]1C[C@H](N2C=C(C(C)(C)CCC(=O)O)[C@](C)(c3ccc(CCC(C)(C)C)c(Cl)c3)NC2=O)C1 [Example 198],
,,> 3200 nM,> 3200 nM,CC(C)C1=CN([C@H]2C[C@H](C(=O)O)C2)C(=O)N[C@]1(C)c1cc(Cl)c(CCC(C)(C)C)cc1F [Example 103],"mRORγ luciferase activity, %-of-control [1]: (50%); hRORγ luciferase activity, %-of-control [2, 7]: (65%)"
1020 nM,1100 nM,,,CC(C)C1=CN(CCC(=O)O)C(=O)N[C@@]1(C)c1ccc(CCC(C)(C)O)c(Cl)c1 [Example 293],
14 nM,10 nM,,,"CC(C)C1=CN(CC(C)C(=O)O)C(=O)N[C@@]1(C)c1ccc(CCC(C)(C)C)c(Cl)c1 (single isomer, unassigned) [Example 300]",
